pKi: −log10 of the molar value. Where two headings read alike, the source gives them in different places.
Columns and labels:
hCA II [1] = biological target: T1, hCA II (Homo sapiens, UniProt P00918); conditions: Figure 1; read-out: hCA II inhibition; cited from earlier work
T1 construct: made in house

hCA I [2] = biological target: T2, hCA I (Homo sapiens, UniProt P00915); conditions: Figure 1; read-out: hCA I inhibition; cited from earlier work
T2 construct: made in house

hCA IX [3] = biological target: T3, hCA IX (Homo sapiens, UniProt Q16790); assay: stopped-flow CO2 hydrase assay, hCA IX; type: biochemical; conditions: for Selectivity index (SI) (KI off-target CA/KI target CA) Towards hCA IX: ratio of KI for hCA I and II relative to hCA IX; for fold decreased inhibitory activity towards hCA IX: relative to phenyl analogue 5a; for pKi: stopped-flow, incubation time of 6 h, mean of three assays, read-out: KI CA IX
T3 construct: made in house
Method: (§1) The newly synthesised MPCs (3 and 5a–o) were assessed for their CA inhibition activity employing the stopped-flow CO2 hydrase assay[29] for constitutional hCA (I/II) isoforms and cancer-linked hCA (IX/XII) isoforms.
(§2) The CA inhibition activity for the herein reported MPC derivatives was evaluated against the hCA isoforms I, II, IX, and XII using stopped-flow CO2 hydrase test[7]^,[33–36] (see the Supplementary Material).
(§3) Carbonic anhydrase inhibition assay
(§4) The carbonic anhydrase catalyzed CO2 hydration actions for all coumarin-based […]
(§5) Photophysics stopped-flow. The enzymes are recombinant proteins prepared in our lab. Phenol red (at a concentration of 0.2 mM) has been used as indicator, working at […]
(§6) mM Na2SO4 (for maintaining constant the ionic strength), following the initial rates of the CA-catalyzed CO2 hydration reaction for a period of 10-100 s. The CO2 concentrations ranged from 1.7 to 17 mM for the determination of the kinetic parameters and inhibition constants. For each inhibitor at least six traces of the initial 5-10% of the reaction have been used for determining the initial velocity. The uncatalyzed rates were determined in the same manner and subtracted from the total observed rates. Stock solutions of inhibitor (0.1 mM) were prepared in distilled-deionized water and dilutions up to 0.01 nM were done thereafter with the assay buffer. Inhibitor and enzyme solutions were preincubated together for 6 hrs. at room temperature prior to assay, in order to allow for the formation of the E-I complex. The inhibition constants were obtained by non-linear least-squares methods using PRISM 3 and the Cheng-Prusoff equation, and represent the mean from at least three different

hCA XII = biological target: T4, hCA XII (Homo sapiens, UniProt O43570); assay: stopped-flow CO2 hydrase assay, hCA XII; type: biochemical; conditions: for Selectivity index (SI) (KI off-target CA/KI target CA) Towards hCA XII: ratio of KI for hCA I and II relative to hCA XII; for pKi: stopped-flow, incubation time of 6 h, mean of three assays, read-out: KI CA XII
T4 construct: made in house
T4 sequence (O43570 25-354): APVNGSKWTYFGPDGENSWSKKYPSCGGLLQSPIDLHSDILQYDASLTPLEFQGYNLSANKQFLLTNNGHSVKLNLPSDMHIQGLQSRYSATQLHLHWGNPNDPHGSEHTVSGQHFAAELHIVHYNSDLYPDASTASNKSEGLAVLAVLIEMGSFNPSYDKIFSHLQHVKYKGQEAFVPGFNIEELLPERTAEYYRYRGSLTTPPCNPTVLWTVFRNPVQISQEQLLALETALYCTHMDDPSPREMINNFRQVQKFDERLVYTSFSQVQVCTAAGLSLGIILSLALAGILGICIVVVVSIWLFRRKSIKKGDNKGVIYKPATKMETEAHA
Method: as §1, §2, §3, §4, §5, §6

hCA II [4] = biological target: T1, hCA II; assay: stopped-flow CO2 hydrase assay, hCA II; type: biochemical; conditions: incubation time of 6 h, mean of three assays, read-out: KI CA II
Method: as §1, §2, §3, §4, §5, §6

hCA I [5] = biological target: T2, hCA I; assay: stopped-flow CO2 hydrase assay, hCA I; type: biochemical; conditions: stopped-flow, incubation time of 6 h, mean of three assays; read-out: KI CA I
Method: as §1, §2, §3, §4, §5, §6

MCF7 = assay: NCI single (10 µM) dose SRB screening, MCF7; type: cell-based, human; conditions: 10 µM single dose, MCF7, Breast cancer
Method: (§7) Following NCI protocol, sixteen MPCs were screened for their potential in vitro anticancer effects against human 59 cancer cell panels including prostate, leukaemia melanoma, colon, breast, CNS, renal, NSCLC, and ovarian cancers by National Cancer Institute (USA)[30].
(§8) The antiproliferative activities of MPC 3 and MPCs 5a–o were first evaluated in a 10 µM dose assay, with SRB assay used to determine cell survival and proliferation. […] The results of the cell growth inhibitory activities for MPCs 5g and 5l towards the different treated tumour cell lines were presented as GI% and presented in Table 3.
(§9) The anticancer test was conducted using the methods of the Drug Evaluation Branch, National Cancer Institute, Bethesda, MD, using 59 human tumour cell lines derived from nine human tissues. The GI50, TGI, and LC50 dose-response parameters were calculated for each medication.

LOX IMVI = assay: NCI single (10 µM) dose SRB screening, LOX IMVI; type: cell-based, human; conditions: 10 µM single dose, Melanoma
Method: as §7, §8, §9

hCA IX [6] = biological target: T3, hCA IX; conditions: Figure 1; read-out: hCA IX inhibition; cited from earlier work
MDA-MB-435 = assay: NCI single (10 µM) dose SRB screening, MDA-MB-435; type: cell-based, human; conditions: 10 µM single dose, MDA-MB-435, Melanoma
Method: as §7, §8, §9

T2 sequence (P00915 whole entry): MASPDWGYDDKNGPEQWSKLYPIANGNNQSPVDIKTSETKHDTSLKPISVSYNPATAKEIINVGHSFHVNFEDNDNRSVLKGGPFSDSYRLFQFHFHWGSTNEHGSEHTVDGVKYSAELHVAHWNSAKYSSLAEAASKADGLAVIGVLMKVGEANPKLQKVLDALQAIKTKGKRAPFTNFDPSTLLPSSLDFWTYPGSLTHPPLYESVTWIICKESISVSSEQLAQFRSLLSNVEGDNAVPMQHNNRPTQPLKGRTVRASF

Row | SMILES | pKi (hCA II [1]) | pKi (hCA I [2]) | Selectivity index (SI) (KI off-target CA/KI target CA) Towards hCA IX (hCA IX [3]) | fold decreased inhibitory activity towards hCA IX (hCA IX [3]) | pKi (hCA IX [3]) | Selectivity index (SI) (KI off-target CA/KI target CA) Towards hCA XII (hCA XII) | pKi (hCA XII) | pKi (hCA II [4]) | melting point [°C] | pKi (hCA I [5]) | GI % (MCF7) [%] | GI % (LOX IMVI) [%] | pKi (hCA IX [6]) | GI % (MDA-MB-435) [%]
1 | O=C(Nc1ccc(Cl)cc1)c1cc2ccc(O)cc2oc1=O [IV] | < 4.00 | < 4.00 |  |  |  |  |  |  |  |  |  |  |  | 
2 | Cc1nc(-c2cc3ccccc3oc2=O)ccc1C(=O)/C=C/c1cccc2ccccc12 [Compound 5k, 3-(6-Methyl-5-[(2E)-3-(naphthalen-1-yl)prop-2-enoyl]pyridin-2-yl)-2H-chromen-2-one] |  |  | >2.71 | ~23 fold | 4.43 | >4.67 | 4.67 | < 4.00 | 204 to 206 | < 4.00 |  |  |  | 
3 | Cc1nc(-c2cc3ccccc3oc2=O)ccc1C(=O)/C=C/c1ccc2c(c1)OCO2 [Compound 5j, 3-(5-[(2E)-3-(2H-1,3-Benzodioxol-5-yl)prop-2-enoyl]-6-methylpyridin-2-yl)-2H-chromen-2-one] |  |  | >18.87 | about 3.5 fold | 5.28 | >14.71 | 5.17 | < 4.00 | 178 to 180 | < 4.00 |  |  |  | 
4 | Cc1ccc(/C=C/C(=O)c2ccc(-c3cc4ccccc4oc3=O)nc2C)o1 [Compound 5n, 3-(6-Methyl-5-[(2E)-3–(5-methylfuran-2-yl)prop-2-enoyl]pyridin-2-yl)-2H-chromen-2-one] |  |  | >66.67 |  | 5.82 | >52.63 | 5.72 | < 4.00 |  | < 4.00 | 40 | 39 |  | 
5 | O=Cc1ccccc1OCc1cn(CCCOc2ccc3ccc(=O)oc3c2)nn1 [V] |  | < 5.00 |  |  |  |  |  |  |  |  |  |  | 6.89 | 
6 | COc1cc(/C=C/C(=O)c2ccc(-c3cc4ccccc4oc3=O)nc2C)cc(OC)c1OC [Compound 5i, 3-(6-Methyl-5-[(2E)-3-(3,4,5-trimethoxyphenyl)prop-2-enoyl]pyridin-2-yl)-2H-chromen-2-one] |  |  | >3.65 |  | 4.56 | >7.75 | 4.89 | < 4.00 | 186 to 188 | < 4.00 |  |  |  | 
7 | Cc1nc(-c2cc3ccccc3oc2=O)ccc1C(=O)/C=C/c1ccc(N(C)C)cc1 [Compound 5f, 3-(5-[(2E)-3-[4-(Dimethylamino)phenyl]prop-2-enoyl]-6-methylpyridin-2-yl)-2H-chromen-2-one] |  |  | >11.76 |  | 5.07 | >14.92 | 5.17 | < 4.00 |  | < 4.00 |  |  |  | 80
8 | CC(=O)c1ccc(-c2cc3ccccc3oc2=O)nc1C [Compound 3, 3-(5-acetyl-6-methylpyridin-2-yl)-2H-chromen-2-one] |  |  | >105.26 |  | 6.02 | >147.06 | 6.17 | < 4.00 |  | < 4.00 |  |  |  | 

From paper PMC9037210, “Novel 3-(6-methylpyridin-2-yl)coumarin-based chalcones as selective inhibitors of cancer-related carbonic anhydrases IX and XII endowed with anti-proliferative activity” (Journal of Enzyme Inhibition and Medicinal Chemistry, 2022)
